Source: patent EP1247803A2, “Indolinone compounds suitable for modulation of protein kinases” (Sugen, Inc., priority 1996, dated 1998)

Assays:
MET = MET biochemical kinase assay; parameters: species or system human; concentration or dose not given beside the values
In short: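 Human MET was captured from cell lysates onto ELISA plates via goat anti-rabbit Fc and rabbit polyclonal antibody to the MET cytoplasmic domain. After washing, test compounds and kinase buffer with ATP and divalent metal ions were added. Phosphotyrosine was detected with HRP-conjugated anti-phosphotyrosine antibody and TMB colorimetric read-out.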

FLK-1 receptor = target: T1, FLK-1 receptor (Mus musculus, UniProt P35918); assay: FLK-1 ELISA (kinase activity of the FLK-1 receptor in FLK-1/NIH3T3 cells, VEGF stimulated); assay type: cell-based; parameters: concentration or dose not given beside the values
T1 construct: expressed in transfected cells; host or cells: NIH3T3 C7#3
In short: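 An ELISA using affinity-purified rabbit anti-FLK-1 antiserum on anti-rabbit IgG-coated plates measured VEGF-stimulated FLK-1 kinase activity. NIH3T3 C7#3 cells carrying FLK-1 were serum-starved (0.1% FBS) overnight, then exposed to compound (final 1:200 dilution, 0.5% DMSO) for two hours at 37 °C.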

T1 sequence (P35918 20-1345): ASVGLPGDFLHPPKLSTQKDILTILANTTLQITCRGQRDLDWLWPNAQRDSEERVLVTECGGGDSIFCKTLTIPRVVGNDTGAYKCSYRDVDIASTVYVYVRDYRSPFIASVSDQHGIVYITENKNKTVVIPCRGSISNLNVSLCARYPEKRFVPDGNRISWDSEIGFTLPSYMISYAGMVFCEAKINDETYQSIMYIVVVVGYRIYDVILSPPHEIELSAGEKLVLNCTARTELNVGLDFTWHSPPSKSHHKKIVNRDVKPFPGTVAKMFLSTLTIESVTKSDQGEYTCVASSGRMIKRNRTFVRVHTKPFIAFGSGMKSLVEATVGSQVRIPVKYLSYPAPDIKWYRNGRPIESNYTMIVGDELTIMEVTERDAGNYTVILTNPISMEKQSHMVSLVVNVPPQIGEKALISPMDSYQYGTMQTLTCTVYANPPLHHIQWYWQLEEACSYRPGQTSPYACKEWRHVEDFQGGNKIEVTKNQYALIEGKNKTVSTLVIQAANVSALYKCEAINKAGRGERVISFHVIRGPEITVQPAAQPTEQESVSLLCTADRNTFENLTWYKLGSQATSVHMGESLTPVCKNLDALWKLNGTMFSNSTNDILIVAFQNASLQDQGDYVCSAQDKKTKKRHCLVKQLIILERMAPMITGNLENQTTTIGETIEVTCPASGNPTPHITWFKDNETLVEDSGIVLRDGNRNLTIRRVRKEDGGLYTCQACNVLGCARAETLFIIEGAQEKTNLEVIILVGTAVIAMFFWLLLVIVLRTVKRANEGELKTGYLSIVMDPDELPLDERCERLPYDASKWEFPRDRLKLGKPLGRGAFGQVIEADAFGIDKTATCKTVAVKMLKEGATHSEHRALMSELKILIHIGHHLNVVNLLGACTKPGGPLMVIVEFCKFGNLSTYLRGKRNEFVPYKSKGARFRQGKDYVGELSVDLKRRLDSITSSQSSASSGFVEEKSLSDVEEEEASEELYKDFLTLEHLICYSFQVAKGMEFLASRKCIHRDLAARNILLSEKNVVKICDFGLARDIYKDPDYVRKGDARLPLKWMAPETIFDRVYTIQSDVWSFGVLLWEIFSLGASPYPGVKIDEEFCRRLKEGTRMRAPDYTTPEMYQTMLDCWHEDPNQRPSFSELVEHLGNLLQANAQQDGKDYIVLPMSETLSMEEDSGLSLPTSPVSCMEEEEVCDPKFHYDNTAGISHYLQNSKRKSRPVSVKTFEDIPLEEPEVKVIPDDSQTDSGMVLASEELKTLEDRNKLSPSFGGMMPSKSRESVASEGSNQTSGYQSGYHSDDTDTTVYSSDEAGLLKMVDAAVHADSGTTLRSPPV

SMILES	Met Kinase % Inhibition (MET) [%]	Fik Kinase %Inhibition (FLK-1 receptor) [%]
COc1cccc(OC)c1C=C1C(=O)Nc2ccc(S(=O)(=O)Nc3ccc(C(F)(F)F)cc3)cc21 [10728/E03]	11.9	13.2
COc1ccc2ccccc2c1C=C1C(=O)Nc2ccc(Br)c(C)c21 [10729/C02]	18.2	6.0
O=C1Nc2ccc(S(=O)(=O)Nc3ccc(C(F)(F)F)cc3)cc2C1=Cc1ccccn1 [10729/E07]	21.6	4.1
CCOC(=O)c1c(C)[nH]c(C=C2C(=O)Nc3ccc(I)cc32)c1C [10718/B02]	52.9	7.0
O=C1Nc2c(Br)cc(Br)cc2C1=Cc1ccc([N+](=O)[O-])o1 [10718/A11]	58.9	2.7
COc1ccc2ccccc2c1C=C1C(=O)Nc2ccc(I)cc21 [10729/B02]	77.2	13.8
O=C1Nc2ccc(I)cc2C1=Cc1ccc2ccccc2c1O [10718/B04]	63.9	11.8
COc1cc(C=C2C(=O)Nc3ccc(CCCl)cc32)cc2c1OCO2 [10728/G11]	71.4	3.2
O=C1Nc2ccc(I)cc2C1=Cc1ccncc1 [10729/B09]	47.2	-16.0
Cc1c(Br)ccc2c1C(=Cc1ccc(N3CCCC3)cc1)C(=O)N2 [10729/C10]	15.8	2.5
O=C1Nc2ccc(S(=O)(=O)Nc3ccc(C(F)(F)F)cc3)cc2C1=Cc1c(F)cccc1C(F)(F)F [10728/E09]	40.0	9.0
Cc1ccsc1C=C1C(=O)Nc2ccc(S(=O)(=O)Nc3ccc(C(F)(F)F)cc3)cc21 [10729/E05]	13.4	46.8
O=C(O)COc1ccccc1C=C1C(=O)Nc2ccc(S(=O)(=O)Nc3ccc(C(F)(F)F)cc3)cc21 [10728/E10]	57.2	24.7
O=C1Nc2ccc(S(=O)(=O)Nc3ccc(C(F)(F)F)cc3)cc2C1=Cc1ccc2c(c1)Cc1ccccc1-2 [10728/E06]	26.4	6.6
O=C1Nc2c(Br)cc(Br)cc2C1=CC1C=CCCC1 (stereo not drawn) [10729/A11]	49.9	4.9
Cc1ccsc1C=C1C(=O)Nc2c(Br)cc(Br)cc21 [10729/A05]	38.8	-17.7
COc1ccc(OC)c(C=C2C(=O)Nc3ccc(CCCl)cc32)c1 [10728/G02]	7.1	2.3
COc1cc(C=C2C(=O)Nc3ccc(S(=O)(=O)Nc4ccc(C(F)(F)F)cc4)cc32)cc(OC)c1 [10728/E04]	25.6	5.5
O=C1Nc2ccc(S(=O)(=O)Nc3ccc(C(F)(F)F)cc3)cc2C1=Cc1cc(C(F)(F)F)ccc1F [10728/E08]	46.3	15.2
CNS(=O)(=O)c1ccc2c(c1)C(=Cc1sccc1C)C(=O)N2 [10729/D05]	28.1	2.2

SMILES	Met Kinase % Inhibition (MET) [%]	Fik Kinase %Inhibition (FLK-1 receptor) [%]
O=C1Nc2c(Br)cc(Br)cc2C1=Cc1cccc(Oc2ccccc2)c1 [10729/A06]	29.8	-10.9
Cc1c(Br)ccc2c1C(=Cc1cccnc1)C(=O)N2 [10729/C08]	55.7	-20.3
Cc1c(Br)ccc2c1C(=Cc1ccccn1)C(=O)N2 [10729/C07]	58.4	-22.4
COc1ccc(C=C2C(=O)Nc3ccc(Br)c(C)c32)c2ccccc12 [10729/C03]	13.5	11.0
Cc1ccsc1C=C1C(=O)Nc2ccc(I)cc21 [10729/B05]	51.0	-5.2
COc1ccc(C=C2C(=O)Nc3ccc(S(=O)(=O)Nc4ccc(C(F)(F)F)cc4)cc32)c2ccccc12 [10729/E03]	27.5	6.9
COc1cc(N(C)C)ccc1C=C1C(=O)Nc2ccc(CCCl)cc21 [10728/G05]	63.1	9.4
CNS(=O)(=O)c1ccc2c(c1)C(=Cc1ccc(OC)c3ccccc13)C(=O)N2 [10729/D03]	22.6	15.3
COc1ccc(C=C2C(=O)Nc3c(Br)cc(Br)cc32)c2ccccc12 [10729/A03]	27.5	4.7
Cc1ccsc1C=C1C(=O)Nc2ccc(Br)c(C)c21 [10729/C05]	15.5	5.8
CNS(=O)(=O)c1ccc2c(c1)C(=Cc1c(F)cccc1C(F)(F)F)C(=O)N2 [10728/D09]	27.6	10.5
COc1cc(Br)c(O)c(C=C2C(=O)Nc3ccc(I)cc32)c1 [10718/B03]	77.9	1.7
CNS(=O)(=O)c1ccc2c(c1)C(=Cc1ccc(SC)cc1)C(=O)N2 [10729/D04]	33.1	-5.7
CNS(=O)(=O)c1ccc2c(c1)C(=Cc1ccc(N3CCCC3)cc1)C(=O)N2 [10729/D10]	36.1	4.1
COc1cccc(OC)c1C=C1C(=O)Nc2ccc(CCCl)cc21 [10728/G03]	8.8	14.3
CSc1ccc(C=C2C(=O)Nc3ccc(S(=O)(=O)Nc4ccc(C(F)(F)F)cc4)cc32)cc1 [10729/E04]	9.8	9.7
O=C1Nc2ccc(I)cc2C1=Cc1ccc(N2CCCC2)cc1 [10729/B10]	32.6	-0.7
COc1ccc(OC)c(C=C2C(=O)Nc3ccc(S(=O)(=O)Nc4ccc(C(F)(F)F)cc4)cc32)c1 [10728/E02]	5.4	5.4
CSc1ccc(C=C2C(=O)Nc3ccc(Br)c(C)c32)cc1 [10729/C04]	20.7	-2.5
CNS(=O)(=O)c1ccc2c(c1)C(=Cc1c(OC)ccc3ccccc13)C(=O)N2 [10729/D02]	31.7	12.2

SMILES	Met Kinase % Inhibition (MET) [%]	Fik Kinase %Inhibition (FLK-1 receptor) [%]
Cc1c(Br)ccc2c1C(=Cc1cccc(Oc3ccccc3)c1)C(=O)N2 [10729/C06]	15.2	3.8
CNS(=O)(=O)c1ccc2c(c1)C(=Cc1cccnc1)C(=O)N2 [10729/D08]	27.6	-26.2
O=C1Nc2c(Br)cc(Br)cc2C1=Cc1ccccn1 [10729/A07]	51.1	-10.0
CNS(=O)(=O)c1ccc2c(c1)C(=Cc1cccc(Oc3ccccc3)c1)C(=O)N2 [10729/D06]	30.2	0.2
Cc1c(O)ccc(C=C2C(=O)Nc3c(Br)cc(Br)cc32)c1O [10718/A09]	67.7	-18.4
COc1ccc2ccccc2c1C=C1C(=O)Nc2ccc(S(=O)(=O)Nc3ccc(C(F)(F)F)cc3)cc21 [10729/E02]	11.7	26.6
CSc1ccc(C=C2C(=O)Nc3c(Br)cc(Br)cc32)cc1 [10729/A04]	45.4	-4.0
COc1cc(C=C2C(=O)Nc3ccc(S(=O)(=O)Nc4ccc(C(F)(F)F)cc4)cc32)cc2c1OCO2 [10728/E11]	53.1	16.3
O=C1Nc2ccc(CCCl)cc2C1=Cc1cccc(C(F)(F)F)c1F [10728/G07]	42.4	22.6
CNS(=O)(=O)c1ccc2c(c1)C(=Cc1cccc(C(F)(F)F)c1F)C(=O)N2 [10728/D07]	21.8	8.1
O=C1Nc2ccc(I)cc2C1=Cc1ccccn1 [10729/B07]	58.2	-13.4
Cc1ccc(C=C2C(=O)Nc3c(Br)cc(Br)cc32)s1 [10717/A07]	29.2	-6.4
CNS(=O)(=O)c1ccc2c(c1)C(=CC1C=CCCC1)C(=O)N2 (stereo not drawn) [10729/D11]	18.8	-2.0
CNS(=O)(=O)c1ccc2c(c1)C(=Cc1ccccc1OCC(=O)O)C(=O)N2 [10728/D10]	30.5	17.9
O=C1Nc2ccc(I)cc2C1=CC1C=CCCC1 (stereo not drawn) [10729/B11]	36.6	7.8
O=C1Nc2ccc(I)cc2C1=Cc1cccnc1 [10729/B08]	66.0	-14.7
O=C1Nc2ccc(S(=O)(=O)Nc3ccc(C(F)(F)F)cc3)cc2C1=Cc1cccc(C(F)(F)F)c1F [10728/E07]	79.8	9.6
CNS(=O)(=O)c1ccc2c(c1)C(=Cc1cc(C(F)(F)F)ccc1F)C(=O)N2 [10728/D08]	34.7	13.5
CNS(=O)(=O)c1ccc2c(c1)C(=Cc1ccncc1)C(=O)N2 [10729/D09]	34.8	-9.6
CNS(=O)(=O)c1ccc2c(c1)C(=Cc1ccccn1)C(=O)N2 [10729/D07]	25.5	-15.3
